Common to all, as to format: nucleic-acid assay
The test system of assay [1] is CTG repeat expansion. Nature of the assay: Binding affinity to dsDNA CTG/CTG triad (unknown origin) assessed as melting temperature at 50 uM […].
Assay [2] relates to CTG repeat expansion. Put plainly: Binding affinity to dsDNA CTG/CTG triad (unknown origin) assessed as change in melting temperature by […]. A general note: In ITC the heat of successive injections is recorded.
Assay [3] deals with CAG repeat expansion. Nature of the assay: Binding affinity to dsDNA CAG/CAG motif (unknown origin) assessed as melting temperature at 50 uM […] (reference value: 21.8 +/-0.2 degreeC).
Assay [4] relates to CGG repeat expansion. Put plainly: Binding affinity to dsDNA CGG/CGG motif (unknown origin) assessed as melting temperature at 50 uM […] (reference value: 28.2 +/-0.3 degreeC).
Assay [5] has as its system CCG repeat expansion. Put plainly: Binding affinity to dsDNA CCG/CCG motif (unknown origin) assessed as melting temperature at 50 uM […] (reference value: 21.6 +/-0.2 degreeC).
For assay [6], the system named is CCG/CGG motif. Put plainly: Binding affinity to dsDNA CCG/CGG motif (unknown origin) assessed as melting temperature at 50 uM […] (reference value: 44.8 +/-0.5 degreeC).
The subject of assay [7] is CAG/CTG motif. Put plainly: Binding affinity to dsDNA CAG/CTG motif (unknown origin) assessed as melting temperature at 50 uM […] (reference value: 38.5 +/-0.4 degreeC).
Assay [8] has as its system TTT/ATA motif. Nature of the assay: Binding affinity to dsDNA TTT/ATA motif (unknown origin) assessed as melting temperature at 50 uM […] (reference value: 16.6 +/-0.2 degreeC).
Assay [9] relates to CAG repeat expansion. Put plainly: Binding affinity to dsDNA CAG/CAG motif (unknown origin) assessed as change in melting temperature at 50 uM […].
In assay [10] the test system is CGG repeat expansion. Nature of the assay: Binding affinity to dsDNA CGG/CGG motif (unknown origin) assessed as change in melting temperature at 50 uM […].
Assay [11] deals with CCG repeat expansion. Nature of the assay: Binding affinity to dsDNA CCG/CCG motif (unknown origin) assessed as change in melting temperature at 50 uM […].
The subject of assay [12] is CCG/CGG motif. Put plainly: Binding affinity to dsDNA CCG/CGG motif (unknown origin) assessed as change in melting temperature at 50 uM […].
The subject of assay [13] is CAG/CTG motif. Put plainly: Binding affinity to dsDNA CAG/CTG motif (unknown origin) assessed as change in melting temperature at 50 uM […].
The subject of assay [14] is TTT/ATA motif. Put plainly: Binding affinity to dsDNA TTT/ATA motif (unknown origin) assessed as change in melting temperature at 50 uM […].
Assay [15] relates to CTG repeat expansion. Nature of the assay: Binding affinity to dsDNA CTG/CTG triad (unknown origin) assessed as increase in band intensity at 50 uM by circular dichroism analysis. (In general: Circular dichroism is widely used to follow secondary structure.)
Assay [16] deals with CAG repeat expansion. Nature of the assay: Binding affinity to dsDNA CAG/CAG triad (unknown origin) assessed as increase in band intensity at 50 uM by circular dichroism analysis.
For assay [17], the system named is CGG repeat expansion. Put plainly: Binding affinity to dsDNA CGG/CGG triad (unknown origin) assessed as increase in band intensity at 50 uM by circular dichroism analysis.
For assay [18], the system named is CCG repeat expansion. Nature of the assay: Binding affinity to dsDNA CCG/CCG triad (unknown origin) assessed as increase in band intensity at 50 uM by circular dichroism analysis.
Assay [19] relates to CTG repeat expansion. Put plainly: Binding affinity to dsDNA CTG/CTG triad (unknown origin) assessed as increase in band intensity by circular dichroism analysis. The following applies: dose 20-60 µM.
The subject of assay [20] is CTG repeat expansion. Put plainly: Binding affinity to (CTG)9 repeat DNA (unknown origin) assessed as increase in band intensity at 20 to 60 uM by circular dichroism analysis. The conditions noted are these: dose 20-60 µM.
The test system of assay [21] is CTG repeat expansion. Put plainly: Binding affinity to dsDNA CTG/CTG motif (unknown origin) assessed as gibbs free energy change measured every 2 mins by ITC analysis.
For assay [22], the target named is CTG repeat expansion. Put plainly: Binding affinity to dsDNA CTG/CTG motif (unknown origin) assessed as dissociation constant measured every 2 mins by ITC analysis.
The test system of assay [23] is CTG repeat expansion. Nature of the assay: Binding affinity to dsDNA CTG/CTG motif (unknown origin) assessed as change in enthalpy measured every 2 mins by ITC analysis.
Assay [24] relates to CTG repeat expansion. Put plainly: Binding affinity to dsDNA CTG/CTG motif (unknown origin) assessed as change in entropy measured every 2 mins by ITC analysis.
Assay [25] deals with CGG repeat expansion. Nature of the assay: Binding affinity to dsDNA CGG/CGG triad (unknown origin) measured upto 50 mins by ITC analysis.
The test system of assay [26] is CTG repeat expansion. Nature of the assay: Binding affinity to dsDNA CTG/CTG triad (unknown origin) assessed as decrease in imino proton signals by NMR analysis.

Structures are written as SMILES. Calls of active or inactive are those of the source. The rule behind the calls is not given here.

Usually ΔTm stands for the change in melting temperature against a reference sample. Take `Cc1ccc2ccc(NC(=O)OCCCNCCCOC(=O)Nc3ccc4ccccc4n3)nc2n1`: the Tm in [1] was 27.7 °C. The ΔTm in assay [2] is -0.1 °C.
The like results for `Cc1ccc2ccc(NC(=O)OCCCNCCCOC(=O)Nc3ccc4ccc(C)nc4n3)nc2n1` were, in that order, 27.9 °C and 0.1 °C.
The like results for `Cc1ccc2ccc(NC(=O)OCCCN)nc2n1` were, in that order, 28 °C and 0.2 °C.
For the molecule `NCCCOC(=O)Nc1cc2ccccc2cn1`, the Tm in [1] turned out to be 28.1 °C. The ΔTm in [2] stood at 0.3 °C.
By Kd is commonly meant a measure of binding affinity in units of concentration. On to `Cc1ccc2ccc(NC(=O)OCCCNCCCOC(=O)Nc3cc4ccccc4cn3)nc2n1`, for which the Tm was 33.6 °C in [1]; 24.6 °C in assay [3]; 32.1 °C in assay [4]; 24.1 °C in assay [5]; 44.8 °C in [6]; 38.2 °C in assay [7]. In assay [8], the Tm stood at 20.1 °C. Besides, the ΔTm in assay [2] is 5.8 °C; in [9], 2.8 °C; in [10], 3.9 °C; in assay [11], 2.5 °C; in [12], 0 °C; in [13], -0.2 °C. Further, in [14], the ΔTm stood at 3.5 °C. Further, the outcome in assay [15], in assay [20], in assay [25] and in assay [26] was Active. Besides, the outcome in assay [16], in assay [17] and in assay [18] was inactive. Also, in [19], the Activity entry was “Dose-dependent-effect”. In [21], the deltaG was -7.8 kcal/mol. Also, in [22], the Kd turned out to be 1900 nM. For the same molecule, the deltaH in [23] is -37.8 kcal/mol. For the same molecule, in assay [24], the -TdeltaS came out at 29.2 kcal/mol.
`Cc1ccc2ccc(NC(=O)OCCCNCCCOC(=O)Nc3ccccn3)nc2n1`: the Tm in assay [1] turned out to be 27.8 °C. In addition, in [2], the ΔTm worked out at 0 °C.

Values taken from ChEMBL document CHEMBL6083241, “The heterodimer of 2-amino-1,8-naphthyridine and 3-aminoisoquinoline binds to the CTG/CTG triad via hydrogen bonding” (Bioorg Med Chem Lett, 2024).
